Reference: patent publication US4221737A, “1-(Alkynyl)amino-1-(mercaptoalkyl)amino ethylenes” (Bristol-Myers Company, priority 1979, dated 1980)

What was measured:
[1] = biological target: T1, histamine H2-receptors (Cavia porcellus, UniProt P47747); assay: Histamine H2-receptor antagonism, isolated guinea pig right atria; conditions: for Histamine ED50 after test compound / Concentration-Response Curve Displacement Factor: test compound 3 × 10^-5 M; for Histamine ED50 after test compound: 30 minute incubation, 95% limits: cimetidine 3.9-5.9 (N=8), Compound XII 3.10-5.98 (N=2), BL-5949 12.50-15.90 (N=5); for Concentration-Response Curve Displacement Factor: displacement of histamine curve to the right
T1 construct: The spontaneously beating right atrium was dissected free from other tissues; from tissue; host or cells: isolated right atrium of male Hartley guinea pigs
T1 sequence (P47747 whole entry): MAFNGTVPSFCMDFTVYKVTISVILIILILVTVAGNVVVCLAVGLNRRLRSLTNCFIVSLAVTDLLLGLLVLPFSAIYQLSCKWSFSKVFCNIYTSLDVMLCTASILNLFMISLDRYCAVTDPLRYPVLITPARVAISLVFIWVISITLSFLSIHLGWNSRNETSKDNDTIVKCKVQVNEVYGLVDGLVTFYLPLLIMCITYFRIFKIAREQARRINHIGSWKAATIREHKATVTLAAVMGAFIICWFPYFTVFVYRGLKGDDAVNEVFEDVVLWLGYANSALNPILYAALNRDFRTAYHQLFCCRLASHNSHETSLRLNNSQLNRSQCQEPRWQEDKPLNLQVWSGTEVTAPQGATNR
Procedure: Subsequent investigations by Hughes and Coret, Proc. Soc. […] Black et al., Agents and Actions, 3, 133 (1973) and Brimblecombe et al., Fed. […] The present comparative studies were carried out using a modification of the procedure reported by Reinhardt et al., Agents and Actions, 4, 217 (1974).
Male Hartley strain guinea pigs (350-450 gm.) were sacrificed by a blow on the head. The heart was excised and placed in a Petri dish of oxygenated (95% O2, 5% CO2) modified Krebs solution (g./liter: NaCl 6.6, KCl 0.35, MgSO4.7 H2 O 0.295, KH2 PO4 0.162, CaCl2 0.238, NaHCO3 2.1 and dextrose 2.09). The spontaneously beating right atrium was dissected free from other tissues and a silk thread (4-0) attached to each end. The atrium was suspended in a 20 ml. muscle chamber containing oxygenated modified Krebs solution maintained at 32° C. Atrial contractions were recorded isometrically by means of a Grass FT 0.03 force displacement transducer and recordings of contractile force and rate were made with a Beckman RP Dynograph.
A resting tension of 1 g. was applied to the atrium and it was allowed to equilibrate for 1 hour.
Concentration-response curve displacement factors were calculated as follows: [formula] […] [formula]

[2] = tested on: gastric acid output; assay: Gastric antisecretory activity in the two hour pylorus ligated (Shay) rat; assay type: in vivo, rat (male Long Evans)
Excerpt: The pyloric ligation procedure in the rat was designed by Shay et al., Gastroenterology, 5, 53 (1945) for the study of perforating gastric ulcers; however, as the method became known, it was also employed as a means of studying rat gastric secretion, Shay et al., Gastroenterology, 26, 906 (1954), Brodie, D. A., Am. J. Dig. Dis., 11, 231 (1966). A modification of this procedure is presently used to evaluate compounds for gastric antisecretory activity.
Male Long Evans rats, 280-300 gm., are used. The animals are placed in individual cages and fasted for 24 hours with free access to water. Under ether anesthesia, the stomach is reached through a midline incision, and a cotton-thread ligature is placed around the pylorus. […] All compounds are solubilized with one equivalent of HCl and brought to the proper volume with water. The animals are returned to their cages from which the water bottles have been removed and two hours later are sacrificed with ether. The stomach is removed and the two hour gastric collection is drained into a graduated test tube for volume determination. Titratable acidity is measured by titrating a one ml. sample to pH 7.0 with 0.02 N NaOH, using an Autoburet and an electrometric pH meter (Radiometer). […] The percent inhibition of acid output is calculated as follows [formula]

[3] = tested on: histamine-induced gastric acid output; assay: Gastric antisecretory activity in the gastric fistula dog (histamine-induced gastric acid output); assay type: in vivo, dog (beagle); conditions: for Percent Inhibition Acid Output: 1.5 μMole/kg iv (BL-5949: one dog at this dose)
Procedure: Thomas type [Thomas, J. E., Proc. Soc. exp. Biol. Med., 46, 260 (1941)] stainless steel cannulae are inserted into the stomachs of beagle dogs (10-12 kg.) just orad to the pyloric gland area near the greater curvature to provide a chronic gastric fistula. Animals are allowed to recover for at least two months before any testing is done. Dogs are fasted overnight (~18 hours) with water ad lib prior to each experiment. The dogs are placed in a sling and an eight inch inside needle catheter (C. R. Baird, Inc.) with a two inch 17 gauge needle is inserted into a leg vein for purposes of drug administration. Gastric secretions are collected every 15 minutes by gravity drainage from the opened cannula. […] A modification of the procedure described by Grossman and Konturek, Gastroenterology, 66, 517 (1974) was followed. […] Each 15 minute sample of gastric juice is measured to the nearest 0.5 ml. and titratable acidity against 0.02 N NaOH (endpoint pH 7.0) is measured with an Autoburet and pH meter (radiometer).The percent inhibition of acid output is calculated as described in the pylorus ligated rat procedure.

[4] = biological target: T1, histamine H2-receptors; conditions: Black et al., Nature, 236, 385 (1972); cited from earlier work
[5] = tested on: gastric secretion; conditions: animals and man; cited from earlier work
[6] = cited from earlier work
[7] = clinical; cited from earlier work
[8] = tested on: H2-receptor; conditions: cited from earlier work
[9] = tested on: peptic ulcer disease; conditions: Gray et al., Lancet, 1 (8001), 4 (1977); cited from earlier work

SMILES | Percent Inhibition Acid Output [3] [%] | Oral absorption / oral activity (in words) [6] | Histamine ED50 after test compound [1] [µg/mL] | Concentration-Response Curve Displacement Factor [1] | Toxicity (agranulocytosis) (in words) [7] | Potency as H2 antagonist (in words) [8] | further results
C#CCNC(=C[N+](=O)[O-])NCCSCc1[nH]cnc1C [BL-5949, 1-Nitro-2-(2-propynylamino)-2-{2-[(4-methyl-1H-imidazol-5-yl)methylthio]ethylamino}ethylene] | 88 | – | – | – | – | – | Potency as histamine H2-receptor antagonist (in words) ([1]; isolated guinea pig atria): more potent than either cimetidine or Compound XII; Potency relative to Compound XII ([2]; ip, rat): 3.7 times; Potency as inhibitor of gastric secretion (in words) ([2]; rats): more potent than either cimetidine or Compound XII; Potency as inhibitor of gastric secretion (in words) ([3]; dogs): more potent than either cimetidine or Compound XII; Potency relative to Compound XII ([3]; iv, dog): 3.8 times
CNC(=S)NCCCCc1cnc[nH]1 [Burimamide] | – | oral absorption is poor | – | – | – | – | Effect at histamine H2-receptors of guinea pig atria (in words) [4]: a competitive antagonist of these receptors; Inhibition of gastric secretion (in words) [5]: inhibits gastric secretion in animals and man
CNC(=C[N+](=O)[O-])NCCSCc1nc[nH]c1C [Compound XII] | – | – | 4.30 | 17.92 | – | – | –
CNC(=NC#N)NCCSCc1nc[nH]c1C [Cimetidine] | 53 | – | 4.80 | 25.26 | without producing agranulocytosis | as effective an H2 antagonist as metiamide | Effectiveness in peptic ulcer disease (in words) [9]: an effective therapeutic agent in the treatment of peptic ulcer disease
CNC(=S)NCCSCc1nc[nH]c1C [Metiamide] | – | orally active in man | – | – | toxicity (agranulocytosis) | more potent than burimamide | –
